The source of these data is patent US6025333A, “Treatment of CNS tumors with metalloprotease inhibitors” (Erziehungsdirektion of the Canton Zurich, priority 1995, dated 2000).

Series [1] deals with C6 cells. As to the kind of experiment: C6 cell spreading on PLYS or CNS myelin with protease inhibitors. The conditions noted are these: for activity at 300 µM: C6, 2.5 h. It counts as cell-based, rat. On the procedure:
Rat C6, mouse NIH 3T3 and B16 cells were cultured in Dulbecco's modified Eagle's medium (DMEM) supplemented with 10% fetal calf serum (FCS), usually to maximally 70-80% confluency. Cells were harvested with a short trypsin treatment (0.1% in Ca^2+ /Mg^2+ -free Hank's medium for 90 seconds) stopped by addition of FCS in excess, collected by centrifugation. Cells were resuspended in either DMEM/FCS or defined serum-free medium (MEM) and used for experiments. Dissociated rat CNS glial cells were prepared starting from optic nerves of 6-7 days old Lewis rats as described in Section 6.1.1, supra and plated into poly-D-lysine (PLYS) coated wells (100 mm^2, 100 μl medium) at a density of 20,000 cells per well. The culture medium was an enriched L15 medium with 5% rat serum, penicillin and streptomycin. C6, 3T3 and B16 cells were added to 2 day old cultures at a concentration of 30,000 cells per well, incubated for two hours and fixed with warm 4% formalin in phosphate buffer. Inhibitory oligodendrocytes were identified by double labelling using the specific antibodies O1 and O4 (see Section 6.1.3, supra).
(§1) Myelin from rat spinal cord (CNS) or sciatic nerve (PNS) purified on a discontinuous sucrose gradient as described in Section 6.1.5., was dried overnight onto PLYS coated wells (20 μg protein/well of 100 mm^2 surface). Unbound membranes were removed by three washes with Ca^2+ /Mg^2+ -free Hank's solution. Myelin coated wells were immediately used in substrate testing assays by the addition of 9,000 cells (C6, 3T3, or B16) per cm^2. Alternatively, we used extracted CNS myelin protein, or SDS-PAGE purified 35 and 250 kD inhibitory proteins reconstituted in liposomes (see Section 7.1.5, supra). Experiments were scored at different time points using a phase contrast microscope equipped with a photocamera. Quantifications were done using a surface integration program; three arbitrary fields were photographed for each well at a magnitude of 80×, at least 25 cells per picture were measured. Each point represents the mean of at least 3 wells±SEM. Results are expressed as μ^2 of projected cell surface, or as degree, which was calculated by subtracting from the projected surface value of a spreading cell, the surface value of a completely spheric cell.

Series [2] has as its system C6 cells. The series is described as follows: C6 cell spreading on CNS myelin protein liposomes, antibody and/or 1,10-phenanthroline. Type of series: cell-based, rat. The following applies: 0.3 mM 1,10-phenanthroline. The method, then: Substrates were tested as described in Section 7.1.2 supra). Myelin fractions or liposomes in medium A were dried onto the wells of polylysine-coated Greiner dishes (Greiner, Murtingen, FRG). […] When substrates were tested in the presence of antibody, bound substrates were incubated in the presence of undiluted hybridoma supernatants or in the presence of 1:30 dilutions (in Hank's medium) of antisera. After 15 minutes at 37° C., four-fifths of the antibody-containing medium was removed and substituted with cell-containing medium. An analogous preincubation procedure was used in experiments aimed at testing HBO nonpermissiveness. 3T3 experiments were usually scored after a culture period of 1 hour, whereas SCG neurons were allowed to grow processes for 24 hours in culture. When 3T3 cells were preincubated with hybridoma supernatant, incubations were performed in gently agitated suspensions for a period of 15 minutes at room temperature. Cells were then sedimented, resuspended in culture medium, and added to substrate-adsorbed Greiner dish wells. 3T3 cells were added at a density of 30,000 cells per cm^2, and SCG neurons were added at a density of 20,000 cells per cm^2.
as §1, with “Myelin coated wells were immediately used in substrate testing assays by the addition of 9,000 cells (C6, 3T3, or B16) per cm^2. Alternatively, we used extracted CNS myelin protein, or SDS-PAGE purified 35 and 250 kD inhibitory proteins reconstituted in liposomes (see Section 7.1.5, supra).” left out, “Each point represents the mean of at least 3 wells±SEM.” left out

In another series the test system is 3T3 cells. The series is described as follows: Treatment of CNS myelin with C6 plasma membranes, then 3T3 spreading and 3H-thymidine incorporation. Type of series: cell-based, mouse. On the procedure:
as §1
C6 cells grown to 80% confluency were washed twice with Hank's medium, and harvested in 20 ml 8.5% sucrose, 50 mM NaCl, 10 mM Tris buffer, pH 7.4, using a rubber policeman. After mechanical homogenization through a series of needles of decreasing size, a low purity plasma membrane fraction was obtained by centrifugation (5 minutes at 3000× g, 10 minutes at 8000× g, and then 2 hours at 100,000× g). A higher purity fraction was isolated by loading the material on a discontinuous sucrose gradient, containing 50 mM NaCl, 10 mM Tris, pH 7.4 (Quigley, 1976, J. Cell Biol. 71: 472-486). 20-40% sucrose interphase (C6 plasma membranes fraction) and 40-60% sucrose interphase (C6 mitochondrial fraction) were collected, washed in Hank's medium and resuspended in MEM.
CNS myelin coated PLYS wells were prepared as described in the previous section, but instead of being immediately tested as substrate, they were first incubated with 50 μl of C6 plasma membranes (containing 0.8 mg protein/ml MEM) at 37° for 30 minutes. Dishes were then rinsed twice with Hank's medium and immediately used as substrates for 3T3 cells. In some experiments, protease blockers were added to the membranes using 10 times concentrated solutions.
(In general: Incorporation of labelled thymidine or its analogues reports DNA synthesis.)

Series [3] relates to C6 cells. As to the kind of experiment: C6 cell attachment and spreading on rat cerebellar frozen sections. Type of series: cell-based. The conditions noted are these: 1,10-phenanthroline 50, 100, 200 and 300 μM; cbz-tyr-tyr 100 μM. The method, then: Adult rat cerebellum frozen sections were prepared and dried on glass coverslips. 70,000 C6, 3T3, or B16 cells in 100 μl were added to each well containing slices previously rinsed with cold DMEM/FCS. Cultures were incubated for 2 days at 37° C. Cultures were then fixed and stained with cresyl violet. Three to four cerebellum slices were used per point per experiment, with each experiment being repeated at least 2 times.

Series [4] relates to C6 cells. The series is described as follows: C6 cell infiltration into optic nerve explants. It counts as cell-based, rat. The conditions noted are these: nerves injected with 4 μl of 3 mM solution; medium 0.5 mM peptide; 14 days. On the procedure:
Optic nerve and sciatic nerve explants were prepared as described (Schwab and Thoenen, 1985, J. Neurosci. 5:2415-2423). Briefly, the nerves were rapidly dissected from about 8 week old male rats, cleaned from the meninges, 3 times frozen and thawed using liquid nitrogen, and placed under a teflon ring (diameter 13 mm, thickness 1 mm) sealed to a culture dish with silicon grease. Two chambers connected only by the explants were in this way obtained. 300,000 C6, 3T3 or B16 cells were plated in the inner chamber in DMEM/FCS and incubated for 5 to 20 days. The medium was changed every other day. Cultures were fixed overnight with 4% formalin. The nerve explants were mounted with Tissue-Tek, 10 to 15 μm sections were cut in a cryostate and collected on gelatine coated cover slips. After drying at room temperature overnight, the sections were stained in 0.75% cresyl violet, and evaluated. The infiltrated cells were counted for each 0.1 mm of the explants, starting from the tip where cells were added. Due to the 15 day incubation, the explants were often different in diameter. Therefore, only the central part of the nerves (0.25 mm) were considered, since only this part of the explants presented a good histological quality. Inhibition experiments were performed with nerve explants previously injected from both sides with 2 μl of 3 mM cbz-tyr-tyr or cbz-ala-phe solutions.

Like-named read-outs stand apart in the source and are kept apart here. Peptide text beside a SMILES is read from it. * marks the point of attachment. Cbz = O=C(OCc1ccccc1)*

In the case of `c1cnc2c(c1)ccc1cccnc12` [1,10-phenanthroline], the “inhibition of C6 cell spreading on CNS myelin” value in the series on C6 cells [1] is “up to 67%”. In addition, in the series on C6 cells [1] (C6 cells, 3 hours, FIG. 22), the “concentrations exerting a general toxic effect on all substrates” value is “above 0.5 mM”. For the same compound, the activity at 300 µM in the series with C6 cells [1] (Rattus norvegicus, inhibitor 0.3 mM, 150 minutes, read-out: Spreading on: PLYS (% of control on PLYS)) turned out to be 97%; in the series on C6 cells [1] (Rattus norvegicus, inhibitor 0.3 mM, CNS myelin, 150 minutes, read-out: Spreading on: CNS (% of control on PLYS)), 30%. Besides, 300 µM produced 67% inhibition in the series with C6 cells [1] (Rattus norvegicus, C6, inhibitor 0.3 mM, PLYS value minus CNS myelin value). Further, the IC50 (in general, the midpoint of a concentration-inhibition curve) with C6 cells [1] (Rattus norvegicus, C6 cells on CNS myelin, 3 hours (FIG. 22), read-out: Half maximal inhibition of C6 spreading on CNS myelin (IC50)) worked out at 200 µM. The “effect on C6 cell spreading on PLYS, glass and PNS myelin” value in the series on C6 cells [1] (concentrations up to 0.5 mM) was “did not impair C6 cell spreading”. Further, in the series with C6 cells [2] (substrate preadsorbed with the named antibody or none, 150 minutes), the “spreading value on: CNS lipos.” value turned out to be 1.35 μm^2 10^3. Moreover, the “spreading value on: PLYS” value in the series with C6 cells [2] (with the named antibody or none, 150 minutes) worked out at 2.49 μm^2 10^3. The “% inhibition on CNS lipos.” value with C6 cells [2] (with the named antibody or none, relates to PLYS) is 46%. The “3T3 Cell Spreading (%)” value in the series with 3T3 cells (3T3 on CNS myelin, alone or preincubated with C6 PM without/with the named inhibitor, 150 minutes, PLYS = 100) is listed as 17%. Also, the “3H-Thymidine Incorporation (%)” value with 3T3 cells (3T3 on CNS myelin, alone or preincubated with C6 PM without/with the named inhibitor, 20 hours, PLYS = 100) is recorded as 50%. Also, in the series on 3T3 cells (blockers added to C6 plasma membranes), the “effect on the C6 plasma membrane effect (neutralization of CNS myelin inhibitory activity)” value is recorded as “completely blocked”. The “distribution and behavior of C6 cells on white matter of cerebellar frozen sections” value in the series on C6 cells [3] is “dramatically changed the distribution and behavior of C6 cells on the white matter areas”.
Take `O=C(N[C@@H](Cc1ccc(O)cc1)C(=O)N[C@@H](Cc1ccc(O)cc1)C(=O)O)OCc1ccccc1` [cbz-tyr-tyr, carbobenzoxy-tryosine-tyrosine] (Cbz-Tyr-Tyr-OH): the “Spreading on: PLYS (% of control on PLYS)” value in the series on C6 cells [1] (inhibitor 0.3 mM, 150 minutes) is recorded as 101 % of control on PLYS. Also, in the series with C6 cells [1] (inhibitor 0.3 mM, CNS myelin, 150 minutes), the “Spreading on: CNS (% of control on PLYS)” value is on record as 56 % of control on PLYS. Besides, the “Inhibition on CNS (%)” value with C6 cells [1] (inhibitor 0.3 mM, PLYS value minus CNS myelin value) turned out to be 45%. Moreover, the “distribution and behavior of C6 cells on white matter of cerebellar frozen sections” value in the series with C6 cells [3] was “dramatically changed the distribution and behavior of C6 cells on the white matter areas”. In addition, in the series on C6 cells [4], the “C6 cell infiltration into optic nerve explants” value is reported as “inhibited C6 cell infiltration in all the 8 nerves examined”.
